Results taken from US10000454B2, “Antidiabetic tricyclic compounds” (Merck Sharp & Dohme Corp., priority 2014, dated 2018).

Columns and labels:
[1] = biological target: T1, Human GPR40 (Homo sapiens, UniProt O14842); experiment: FLIPR assay, agonist-induced calcium mobilization; format: cell-based; design: expressed in transfected cells; details: GPR40/CHO NFAT BLA cells
Method: (§1) Human and mouse GPR40 stable cell-lines were generated in CHO cells stably expressing NFAT BLA (Beta-lactamase). A human GPR40 stable cell-line was generated in HER cells stably expressing the aequorin expressing reporter. The expression plasmids were transfected using lipofectamine (Life Technologies) following manufacturer's instructions. Stable cell-lines were generated following drug selection.
FLIPR (Fluorimetric Imaging Plate Reader, Molecular Devices) assays were performed to measure agonist-induced calcium mobilization of the stable clones. For the FLIPR assay, one day before assay, GPR40/CHO NFAT BLA cells were seeded into black-wall-clear-bottom 384-well plates (Costar) at 1.4×10e4 cells/20 μL medium/well. The cells were incubated with 20 μl/well of the assay buffer (HMS, 0.1% BSA, 20 mM HEPES, 2.5 mM probenecid, pH 7.4) containing 8 μM fluo-4, AM, 0.08% pluronic acid at room temperature for 100 minutes. Fluorescence output was measured using FLIPR. Compounds were dissolved in DMSO and diluted to desired concentrations with assay buffer. 13.3 μL/well of compound solution was added.

[2] = biological target: T1, Human GPR40; experiment: Inositol Phosphate Turnover (IP1) Assay; format: cell-based; design: expressed in transfected cells; host or cells: HEK cells (stably expressing the aequorin reporter); details: HEK cells stably expressing human GPR40, CisBio IP-One kit
Method: as §1
The assay is performed in 384-well format. HEK cells stably expressing human GPR40 are plated at 15,000 cells per well in growth medium (DMEM/10% fetal calf serum). Cell plates are then incubated 16 hours at 37 degrees in a 5% CO2 incubator.
Measurement of Inositol Phosphate Turnover (IP1) is performed using the CisBio IP-One kit (Part number 62IPAPEB). After the 16 hour incubation, the cells are washed with HEPES buffer and 10 ul of stimulation buffer (prepared as described in the kit) is added to each well. In a separate plate, compounds are diluted in DMSO (400-fold over the final concentration in the assay well) and 25 nl is acoustically transferred to the appropriate well in the assay cell plate. The plates are then incubated for 60 minutes at 37 degrees. 10 ul of detection buffer (also prepared as described in the IP-One kit) is added to each well and the plates are incubated for 60 minutes in the dark. The plates are then read in a Perkin Elmer EnVision or equivalent reader able to measure FRET. Fluorescent ratio of emission at 665 and 620 nm is then converted to IP1 concentration by back calculating from an IP1 standard curve prepared at the time of the assay.

T1 sequence (O14842 whole entry): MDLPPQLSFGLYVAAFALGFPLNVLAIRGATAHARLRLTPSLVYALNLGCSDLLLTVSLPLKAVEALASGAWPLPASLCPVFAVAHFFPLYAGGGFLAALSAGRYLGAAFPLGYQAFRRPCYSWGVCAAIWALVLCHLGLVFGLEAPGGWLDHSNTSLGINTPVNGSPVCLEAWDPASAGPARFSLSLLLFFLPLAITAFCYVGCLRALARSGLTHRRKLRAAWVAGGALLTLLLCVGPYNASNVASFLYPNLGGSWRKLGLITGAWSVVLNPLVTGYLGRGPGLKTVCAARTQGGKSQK

Compound | EC50 [1] [nM] | EC50 [2] [nM]
CC1(C)CC(c2ccccc2Cl)c2cc(COc3cc4c(cn3)[C@H]3[C@@H](C4)[C@@H]3C(=O)O)ccc21 (stereo partly drawn) [Example 11, (5aR,6S,6aS)-3-((3-(2-chlorophenyl)-1,1-dimethyl-2,3-dihydro-1H-inden-5-yl)methoxy)-5,5a,6,6a-tetrahydro-cyclopropa[4,5]cyclopenta [1,2-c]pyridine-6-carboxylic acid] | 17.8 | 35.1
CC1(C)CC(c2ccccc2S(C)(=O)=O)c2cc(COc3cc4c(cn3)[C@H]3[C@@H](C4)[C@@H]3C(=O)O)ccc21 (stereo partly drawn) [Example 13, (5aR,6S,6aS)-3-((1,1-dimethyl-3-(2-(methyl-sulfonyl)phenyl)-2,3-dihydro-1H-inden-5-yl)methoxy)-5,5a,6,6a-tetrahydrocyclopropa[4,5] cyclopenta[1,2-c]pyridine-6-carboxylic acid] | 22.6 | 40.6
COc1ncccc1C1CC(C)(C)c2ccc(COc3cc4c(cn3)[C@H]3[C@@H](C4)[C@@H]3C(=O)O)cc21 (stereo partly drawn) [Example 14, (5aR,6S,6aS)-3-((3-(2-methoxypyridin-3-yl)-1,1-dimethyl-2,3-dihydro-1H-inden-5-yl)methoxy)-5,5a,6,6a-tetrahydro-cyclopropa[4,5]cyclopenta [1,2-c]pyridine-6-carboxylic acid] | 11.6 | 21.8
COc1nccc(C)c1C1CC(C)(C)c2ccc(COc3cc4c(cn3)[C@H]3[C@@H](C4)[C@@H]3C(=O)O)cc21 (stereo partly drawn) [Example 15, (5aR,6S,6aS)-3-((3-(2-methoxy-4-methylpyridin-3-yl)-1,1-dimethyl-2,3-dihydro-1H-inden-5-yl)methoxy)-5,5a,6,6a-tetrahydrocyclopropa[4,5] cyclopenta[1,2-c]pyridine-6-carboxylic acid] | 8.6 | 7.77
Cn1cnc2cccc(C3CC(C)(C)c4ccc(COc5cc6c(cn5)[C@H]5[C@@H](C6)[C@@H]5C(=O)O)cc43)c21 (stereo partly drawn) [Example 16, (5aR,6S,6aS)-3-((1,1-dimethyl-3-(1-methyl-1H-benzo[d]imidazol-7-yl)-2,3-dihydro-1H-inden-5-yl)methoxy)-5,5a,6,6a-tetrahydrocyclopropa[4,5] cyclopenta[1,2-c]pyridine-6-carboxylic acid] | 7.29 | 27.7
CC1(C)CC(c2ccccc2F)c2cc(COc3cc4c(cn3)[C@H]3[C@@H](C4)[C@@H]3C(=O)O)ccc21 (stereo partly drawn) [Example 17, (5aR,6S,6aS)-3-((1,1-dimethyl-3-(2-fluorophenyl)-2,3-dihydro-1H-inden-5-yl)methoxy)-5,5a,6,6a-tetrahydrocyclopropa[4,5] cyclopenta[1,2-c]pyridine-6-carboxylic acid] | 21.7 | 43.7
O=C(O)[C@H]1[C@@H]2Cc3cc(OCc4ccc5c(c4)C(c4ccccc4C(F)(F)F)CC5c4ccccc4)ncc3[C@@H]21 (stereo partly drawn) [Example 18, (5aR,6S,6aS)-3-((1-phenyl-3-(2-(trifluoromethyl)phenyl)-2,3-dihydro-1H-inden-5-yl)methoxy)-5,5a,6,6a-tetrahydrocyclopropa[4,5]cyclopenta[1,2-c]pyridine-6-carboxylic acid] | 13.2 | 24.6
O=C(O)[C@H]1[C@@H]2Cc3cc(OCc4ccc5c(c4)C(c4ccccc4C(F)(F)F)CC5c4ccccc4)ncc3[C@@H]21 (stereo partly drawn) [Example 19, (5aR,6S,6aS)-3-((1-phenyl-3-(2-(trifluoromethyl)phenyl)-2,3-dihydro-1H-inden-5-yl)methoxy)-5,5a,6,6a-tetrahydrocyclopropa[4,5]cyclopenta[1,2-c]pyridine-6-carboxylic acid] | 15.5 | 17.5
O=C(O)[C@H]1[C@@H]2Cc3cc(OCc4ccc5c(c4)C(O)(c4ccccc4C(F)(F)F)CC5)ccc3[C@@H]21 (stereo partly drawn) [Example 21, (1S,1aS,6aR)-4-((3-hydroxy-3-(2-(trifluoromethyl)phenyl)-2,3-dihydro-1H-inden-5-yl)methoxy)-1,1a,6,6a-tetrahydrocyclopropa[a]indene-1-carboxylic acid] | 17.7 | 16.6
CC1(C)CC(c2ccncc2C(F)(F)F)c2cc(COc3cc4c(cn3)[C@H]3[C@@H](C4)[C@@H]3C(=O)O)c(F)cc21 (stereo partly shown) [Example 25] | 6.92 | 6.91
CC1(C)CC(c2cccnc2C(F)(F)F)c2cc(COc3cc4c(cn3)[C@H]3[C@@H](C4)[C@@H]3C(=O)O)c(F)cc21 (stereo partly drawn) [Example 26, (5aR,6S,6aS)-3-((6-fluoro-1,1-dimethyl-3-(2-(trifluoromethyl)pyridin-3-yl)-2,3-dihydro-1H-inden-5-yl)methoxy)-5,5a,6,6a-tetrahydrocyclopropa [4,5]cyclopenta[1,2-c]pyridine-6-carboxylic acid] | 14.1 | 20.8
COc1ncccc1C1CCC(C)(C)c2cc(F)c(COc3cc4c(cn3)[C@H]3[C@@H](C4)[C@@H]3C(=O)O)cc21 (stereo partly drawn) [Example 27, (5aR,6S,6aS)-3-((3-fluoro-8-(2-methoxypyridin-3-yl)-5,5-dimethyl-5,6,7,8-tetrahydronaphthalen-2-yl)methoxy)-5,5a,6,6a-tetrahydrocyclopropa [4,5]cyclopenta[1,2-c]pyridine-6-carboxylic acid] | 7.22 | 15.6
CC1(C)CC(c2ccc(OCCCS(C)(=O)=O)cc2C(F)(F)F)c2cc(COc3cc4c(cn3)[C@H]3[C@@H](C4)[C@@H]3C(=O)O)c(F)cc21 (stereo partly drawn) [Example 28, (6S)-3-((6-fluoro-1,1-dimethyl-3-(4-(3-(methylsulfonyl)propoxy)-2-(trifluoromethyl)phenyl)-2,3-dihydro-1H-inden-5-yl)methoxy)-5,5a,6,6a-tetrahydrocyclopropa[4,5]cyclopenta[1,2-c]pyridine-6-carboxylic acid] | 6.9 | 41.2
Cc1nc(OCCC(C)(C)O)ccc1C1CCCc2ccc(COc3cc4c(cn3)[C@H]3[C@@H](C4)[C@@H]3C(=O)O)cc21 (stereo partly drawn) [Example 30, (5aR,6S,6aS)-3-((8-(6-(3-hydroxy-3-methylbutoxy)-2-methylpyridin-3-yl)-5,6,7,8-tetrahydronaphthalen-2-yl)methoxy)-5,5a,6,6a-tetrahydrocyclopropa[4,5] cyclopenta[1,2-c]pyridine-6-carboxylic acid] | 33 | 35
C=C(C)CCOc1ccc(C2CCCc3ccc(COc4cc5c(cn4)[C@H]4[C@@H](C5)[C@@H]4C(=O)O)cc32)c(C)n1 (stereo partly drawn) [Example 31, (5aR,6S,6aS)-3-((8-(2-methyl-6-((3-methylbut-3-en-1-yl)oxy)pyridin-3-yl)-5,6,7,8-tetrahydronaphthalen-2-yl)methoxy)-5,5a,6,6a-tetrahydrocyclopropa[4,5] cyclopenta[1,2-c]pyridine-6-carboxylic acid] | 51.9 | 214
CC1(C)CN(c2ccccc2C(F)(F)F)c2cc(COc3cc4c(cn3)[C@H]3[C@@H](C4)[C@@H]3C(=O)O)c(F)cc21 [Example 32, (5aR,6S,6aS)-3-((5-fluoro-3,3-dimethyl-1-(2-(trifluoromethyl)phenyl)indolin-6-yl)methoxy)-5,5a,6,6a-tetrahydrocyclopropa[4,5]cyclopenta[1,2-c]pyridine-6-carboxylic acid] | 8.94 | 9.96
O=C(O)[C@H]1[C@@H]2Cc3cc(OCc4ccc5c(c4)N(c4ccccc4C(F)(F)F)CC5)ncc3[C@@H]21 [Example 33] | 15.3 | 26.2
O=C(O)[C@H]1[C@@H]2Cc3cc(OCc4ccc5ccn(-c6ccccc6C(F)(F)F)c5c4)ncc3[C@@H]21 [Example 34, (5aR,6S,6aS)-3-((1-(2-(trifluoromethyl)phenyl)-1H-indol-6-yl)methoxy)-5,5a,6,6a-tetrahydrocyclo-propa[4,5]cyclopenta[1,2-c]pyridine-6-carboxylic acid] | 33.9 | 23.2
O=C(O)[C@H]1[C@@H]2Cc3cc(OCc4ccc5c(c4)N(c4ccccc4)CC5)ncc3[C@@H]21 [Example 35, (5aR,6S,6aS)-3-((1-(2-phenyl)indolin-6-yl)methoxy)-5,5a,6,6a-tetrahydrocyclopropa[4,5] cyclopenta[1,2-c]pyridine-6-carboxylicacid] | 53.4 | 168
O=C(O)[C@H]1[C@@H]2Cc3cc(OCc4ccc5c(Br)cn(-c6ccccc6C(F)(F)F)c5c4)ncc3[C@@H]21 [Example 36, (5aR,6S,6aS)-3-({3-bromo-1-[2-(trifluoromethyl)phenyl]-1H-indol-6-yl}methoxy)-5,5a,6,6a-tetrahydrocyclopropa[4,5] cyclopenta[1,2-c]pyridine-6-carboxylic acid] | 26.9 | 47.6
